Data published in ChEMBL document CHEMBL1777719, “Norcantharidin analogues with nematocidal activity in Haemonchus contortus” (Bioorg Med Chem Lett, 2011).
Activity calls are given as the source filed them. The calls are words filed in the database; no cut-off is given here.

Experiments:
Haemonchus contortus = test: Nematocidal activity against Haemonchus contortus Haecon 5 strain isolated from helminth-free Merino weaner sheep at 12.5 to 100 uM after 6 days by larval development assay; format: functional, organism-based
[1] = Cytotoxicity against human H460 cells after 72 hrs by MTT assay; format: cell-based; conditions: NCI-H460 cells
[2] = Cytotoxicity against human MCF7 cells after 72 hrs by MTT assay; format: cell-based
[3] = Cytotoxicity against human SJ-G2 cells after 72 hrs by MTT assay; format: cell-based
[4] = Cytotoxicity against human BE(2)-C cells after 72 hrs by MTT assay; format: cell-based
[5] = Cytotoxicity against human SW480 cells after 72 hrs by MTT assay; format: cell-based
[6] = Cytotoxicity against human A431 cells after 72 hrs by MTT assay; format: cell-based, A-431
[7] = Cytotoxicity against human HT-29 cells after 72 hrs by MTT assay; format: cell-based
[8] = Cytotoxicity against human A2780 cells after 72 hrs by MTT assay; format: cell-based
[9] = Cytotoxicity against human DU145 cells after 72 hrs by MTT assay; format: cell-based, DU-145

| SMILES | inhibition (Haemonchus contortus) | GI50 at 72 h [1] [µM] | GI50 at 72 h [2] [µM] | GI50 at 72 h [3] [µM] | GI50 at 72 h [4] [µM] | GI50 at 72 h [5] [µM] | GI50 at 72 h [6] [µM] | GI50 at 72 h [7] [µM] | GI50 at 72 h [8] [µM] | GI50 at 72 h [9] [µM] |
| --- | --- | --- | --- | --- | --- | --- | --- | --- | --- | --- |
| CCCCCNC(=O)[C@@H]1N(CCCN(C)C)C(=O)C2=C(CCCC)[C@H]3C=C[C@]21O3 | inactive |  |  |  |  |  |  |  |  |  |
| O=C1[C@@H]2[C@H](C(=O)N1c1ncccc1OCc1ccccc1)[C@H]1CC[C@@H]2O1 |  | > 75 | > 75 | > 75 | > 75 | > 75 | > 75 | > 75 | > 75 | > 75 |
| O=C(O)c1ccc(NC(=O)C2C(C(=O)O)[C@@H]3CC[C@H]2O3)cc1Cl (stereo partly specified) | inactive | 10 | 10 | 10 | 10 | 10 | 10 | 10 | 10 | 10 |
| O=C(O)C1C(C(=O)NCCCc2ccccc2)[C@H]2CC[C@@H]1O2 (stereo partly specified) | inactive | 10 | 10 | 10 | 10 | 10 | 10 | 10 | 10 | 10 |
| CCCCCNC(=O)[C@H]1N(Cc2ccccc2)C(=O)C2=C(C)[C@H]3C=C[C@]21O3 | inactive |  |  |  |  |  |  |  |  |  |
| CCCCCNC(=O)[C@H]1N(CCCN(C)C)C(=O)C2=C(CCCC)[C@H]3C=C[C@]21O3 | inactive |  |  |  |  |  |  |  |  |  |
| COC(=O)CNC(=O)[C@H]1N(CCCCCO)C(=O)C2=C(C)[C@H]3C=C[C@]21O3 | inactive |  |  |  |  |  |  |  |  |  |
| CCCCCCCCN1C(=O)C2=C(C)[C@H]3C=C[C@@]2(O3)[C@@H]1C(=O)NCC(=O)OCC | inactive |  |  |  |  |  |  |  |  |  |
| O=C(O)[C@H](Cc1ccc(O)cc1)N1C(=O)[C@@H]2[C@H](C1=O)[C@H]1CC[C@@H]2O1 |  | > 75 | > 75 | > 75 | > 75 | > 75 | > 75 | > 75 | > 75 | > 75 |
| COC(=O)CNC(=O)[C@@H]1N(CCCCCO)C(=O)C2=C(C)[C@H]3C=C[C@]21O3 | inactive |  |  |  |  |  |  |  |  |  |
| CCCCCCCCCCCCCCN1C(=O)[C@@H]2[C@H](C1=O)[C@H]1CC[C@@H]2O1 | inactive |  |  |  |  |  |  |  |  |  |
| CN(C)CCOc1ccc(N2C(=O)[C@@H]3[C@H](C2=O)[C@H]2CC[C@@H]3O2)cc1 |  | > 75 | > 75 | > 75 | > 75 | > 75 | > 75 | > 75 | > 75 | > 75 |
| CCCCCCCCCCCCCCCCCCN1C(=O)[C@@H]2[C@H](C1=O)[C@H]1CC[C@@H]2O1 | inactive |  |  |  |  |  |  |  |  |  |
| CCCCCCCCN1C(=O)C2=C(C)[C@H]3C=C[C@@]2(O3)[C@H]1C(=O)NCC(=O)OCC | inactive |  |  |  |  |  |  |  |  |  |
| CN(C)CCOc1ccccc1N1C(=O)[C@@H]2[C@H](C1=O)[C@H]1CC[C@@H]2O1 |  | > 75 | > 75 | > 75 | > 75 | > 75 | > 75 | > 75 | > 75 | > 75 |
| CCCCCNC(=O)[C@@H]1N(Cc2ccccc2)C(=O)C2=C(C)[C@H]3C=C[C@]21O3 | inactive |  |  |  |  |  |  |  |  |  |
| O=C1[C@@H]2[C@H](C(=O)N1CCOP(=O)(OCC(Cl)(Cl)Cl)OCC(Cl)(Cl)Cl)[C@H]1CC[C@@H]2O1 |  | > 75 | > 75 | > 75 | > 75 | > 75 | > 75 | > 75 | > 75 | > 75 |
| CCCCCCCCCCCCN1C(=O)[C@@H]2[C@H](C1=O)[C@H]1CC[C@@H]2O1 | inactive |  |  |  |  |  |  |  |  |  |
